# Source: paper PMC9161374 (Science Translational Medicine, 2022)
# “And” between values parts separate entries of the source, which are not always exact repeats. Equal entries are not always repeated.
# Key:
# [1] = tested on: SARS-CoV-2 replicon system (pBAC-SARS-CoV-2-Replicon-Luc); assay: microbe, parasite or virus in culture; type: cell-based; details: Severe acute respiratory syndrome coronavirus 2, HEK-293T, 60 h
# SARS-CoV-2 (B.1) = assay: Anti-SARS-CoV-2 activity in Vero E6 cells (viral yield by qRT-PCR); type: cell-based
# [2] = tested on: SARS-CoV-2 (Beta, B.1.351); assay: microbe, parasite or virus in culture; type: cell-based; details: for % Inhibition: beta
# [3] = tested on: SARS-CoV-2 (Delta, B.1.617.2); assay: microbe, parasite or virus in culture; type: cell-based; details: for % Inhibition: delta
# [4] = tested on: SARS-CoV-2 (B.1) in Huh7 cells; assay: Anti-SARS-CoV-2 activity in Huh7 cells (viral yield by qRT-PCR); type: cell-based; details: B.1, MOI 0.05, 48 h
# [5] = CCK-8 cell viability assay; type: cell-based, African green monkey; details: African green monkey; Vero E6 cells, 48 h, CCK8
# Procedure, shortened: (§1)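 Vero E6 cells, 20,000/well, exposed to compound at 0–200 μM (0, 0.01, 0.1, 1, 5, 10, 50, 75, 100, 200 μM) for 48 h; viability read by CCK-8 and expressed as percentage versus drug concentration, mean ± SD.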
# Vero E6 cells = assay: CCK-8 cell viability assay; type: cell-based, African green monkey; details: individual replicate values, Fig.S4
# Procedure, shortened: as §1
compound,measurement,setting,value
CC(C)CC(=O)OC[C@H]1O[C@@](C#N)(c2ccc3c(N)ncnn23)[C@H](O)[C@@H]1O [ATV017],EC50,"[1]; read-out: EC50 (Confidence 95%), replicon",433 nM
same,EC90,"[1]; read-out: EC90 (Confidence 95%), replicon",576 nM
same,% Inhibition,"SARS-CoV-2 (B.1); 0.1 μM, replicates, sheet Fig.S3",0%
same,% Inhibition,"SARS-CoV-2 (B.1); 0.5 μM, replicates, sheet Fig.S3",0%
same,% Inhibition,"SARS-CoV-2 (B.1); 1 μM, replicates, sheet Fig.S3",65.5016%
same,% Inhibition,"SARS-CoV-2 (B.1); 2 μM, replicates, sheet Fig.S3",89.9686%
same,% Inhibition,"SARS-CoV-2 (B.1); 5 μM, replicates, sheet Fig.S3",91.0527%
same,% Inhibition,"SARS-CoV-2 (B.1); 10 μM, replicates, sheet Fig.S3",91.8254%
same,% Inhibition,"SARS-CoV-2 (B.1); B.1, 0.01 uM, Vero E6, replicates",0%
same,% Inhibition,"SARS-CoV-2 (B.1); B.1, 0.1 uM, Vero E6, replicates",0%
same,% Inhibition,"SARS-CoV-2 (B.1); B.1, 0.25 uM, Vero E6, replicates",0%
same,% Inhibition,"SARS-CoV-2 (B.1); B.1, 0.5 uM, Vero E6, replicates",0%
same,% Inhibition,"SARS-CoV-2 (B.1); B.1, 1 uM, Vero E6, replicates",0%
same,% Inhibition,"SARS-CoV-2 (B.1); B.1, 5 uM, Vero E6, replicates, 5 µM",99.7611%
same,% Inhibition,"SARS-CoV-2 (B.1); B.1, 10 uM, Vero E6, replicates, 10 µM",99.9908%
same,% Inhibition,"SARS-CoV-2 (B.1); B.1, 50 uM, Vero E6, replicates, 50 µM",99.9887%
same,inhibition at 0.1 µM,"SARS-CoV-2 (B.1); Severe acute respiratory syndrome coronavirus 2, Vero C1008, 0.1 μM, replicates, sheet Fig.S3",0%
same,inhibition at 0.5 µM,"SARS-CoV-2 (B.1); Severe acute respiratory syndrome coronavirus 2, Vero C1008, 0.5 μM, replicates, sheet Fig.S3",0%
same,inhibition at 1 µM,"SARS-CoV-2 (B.1); Severe acute respiratory syndrome coronavirus 2, Vero C1008, 1 μM, replicates, sheet Fig.S3",62.2%
same,inhibition at 2 µM,"SARS-CoV-2 (B.1); Severe acute respiratory syndrome coronavirus 2, Vero C1008, 2 μM, replicates, sheet Fig.S3",89.2%
same,inhibition at 5 µM,"SARS-CoV-2 (B.1); Severe acute respiratory syndrome coronavirus 2, Vero C1008, 5 μM, replicates, sheet Fig.S3",92.3%
same,inhibition at 10 µM,"SARS-CoV-2 (B.1); Severe acute respiratory syndrome coronavirus 2, Vero C1008, 10 μM, replicates, sheet Fig.S3",93.6%
same,inhibition at 0.01 µM,"SARS-CoV-2 (B.1); Severe acute respiratory syndrome coronavirus 2, Vero C1008, B.1, 0.01 uM, Vero E6, replicates",0%
same,inhibition at 0.1 µM,"SARS-CoV-2 (B.1); Severe acute respiratory syndrome coronavirus 2, Vero C1008, B.1, 0.1 uM, Vero E6, replicates",0%
same,inhibition at 0.25 µM,"SARS-CoV-2 (B.1); Severe acute respiratory syndrome coronavirus 2, Vero C1008, B.1, 0.25 uM, Vero E6, replicates",0%
same,inhibition at 0.5 µM,"SARS-CoV-2 (B.1); Severe acute respiratory syndrome coronavirus 2, Vero C1008, B.1, 0.5 uM, Vero E6, replicates",0%
same,inhibition at 1 µM,"SARS-CoV-2 (B.1); Severe acute respiratory syndrome coronavirus 2, Vero C1008, B.1, 1 uM, Vero E6, replicates",0%
same,inhibition at 5 µM,"SARS-CoV-2 (B.1); Severe acute respiratory syndrome coronavirus 2, Vero C1008, B.1, 5 uM, Vero E6, replicates",99.6%
same,inhibition at 10 µM,"SARS-CoV-2 (B.1); Severe acute respiratory syndrome coronavirus 2, Vero C1008, B.1, 10 uM, Vero E6, replicates",99.9%
same,inhibition at 50 µM,"SARS-CoV-2 (B.1); Severe acute respiratory syndrome coronavirus 2, Vero C1008, B.1, 50 uM, Vero E6, replicates",99.9%
same,EC90,"SARS-CoV-2 (B.1); Severe acute respiratory syndrome coronavirus 2, Vero C1008, read-out: EC90 (Confidence 95%), Vero-E6, B.1",2480 nM
same,EC50,"SARS-CoV-2 (B.1); Severe acute respiratory syndrome coronavirus 2, Vero C1008, MOI 0.05, 48 h",2190 nM
same,EC50,"[2]; Severe acute respiratory syndrome coronavirus 2, Vero C1008, 48 h, read-out: EC50 in Vero E6 cells, SARS-CoV-2 (Beta, B.1.351)",2850 nM
same,inhibition at 0.01 µM,"[2]; Severe acute respiratory syndrome coronavirus 2, Vero C1008, beta, 0.01 uM, Vero E6, replicates",0%
same,inhibition at 0.1 µM,"[2]; Severe acute respiratory syndrome coronavirus 2, Vero C1008, beta, 0.1 uM, Vero E6, replicates",0%
same,inhibition at 0.25 µM,"[2]; Severe acute respiratory syndrome coronavirus 2, Vero C1008, beta, 0.25 uM, Vero E6, replicates",0%
same,inhibition at 0.5 µM,"[2]; Severe acute respiratory syndrome coronavirus 2, Vero C1008, beta, 0.5 uM, Vero E6, replicates",0%
same,inhibition at 1 µM,"[2]; Severe acute respiratory syndrome coronavirus 2, Vero C1008, beta, 1 uM, Vero E6, replicates",0%
same,inhibition at 5 µM,"[2]; Severe acute respiratory syndrome coronavirus 2, Vero C1008, beta, 5 uM, Vero E6, replicates",99.7%
same,inhibition at 10 µM,"[2]; Severe acute respiratory syndrome coronavirus 2, Vero C1008, beta, 10 uM, Vero E6, replicates",99.9%
same,EC90,"[2]; Severe acute respiratory syndrome coronavirus 2, Vero C1008, read-out: EC90 (Confidence 95%), Vero-E6, Beta B.1.351",3400 nM
same,% Inhibition,"[2]; 0.01 uM, Vero E6, replicates",0%
same,% Inhibition,"[2]; 0.1 uM, Vero E6, replicates",0%
same,% Inhibition,"[2]; 0.25 uM, Vero E6, replicates",0%
same,% Inhibition,"[2]; 0.5 uM, Vero E6, replicates",0%
same,% Inhibition,"[2]; 1 uM, Vero E6, replicates",0%
same,% Inhibition,"[2]; 2 uM, Vero E6, replicates",6.056% and 0%
same,% Inhibition,"[2]; 5 uM, Vero E6, replicates",99.5481%
same,% Inhibition,"[2]; 10 uM, Vero E6, replicates",99.9499%
same,% Inhibition,"[2]; 50 uM, Vero E6, replicates",99.982%
same,EC50,"[3]; Severe acute respiratory syndrome coronavirus 2, Vero C1008, 48 h, read-out: EC50 in Vero E6 cells, SARS-CoV-2 (Delta, B.1.617.2)",428 nM
same,inhibition at 0.01 µM,"[3]; Severe acute respiratory syndrome coronavirus 2, Vero C1008, delta, 0.01 uM, Vero E6, replicates",0%
same,inhibition at 0.1 µM,"[3]; Severe acute respiratory syndrome coronavirus 2, Vero C1008, delta, 0.1 uM, Vero E6, replicates",0%
same,inhibition at 0.25 µM,"[3]; Severe acute respiratory syndrome coronavirus 2, Vero C1008, delta, 0.25 uM, Vero E6, replicates",0%
same,inhibition at 0.5 µM,"[3]; Severe acute respiratory syndrome coronavirus 2, Vero C1008, delta, 0.5 uM, Vero E6, replicates",82.8%
same,inhibition at 1 µM,"[3]; Severe acute respiratory syndrome coronavirus 2, Vero C1008, delta, 1 uM, Vero E6, replicates",90.3%
same,inhibition at 2 µM,"[3]; Severe acute respiratory syndrome coronavirus 2, Vero C1008, delta, 2 uM, Vero E6, replicates",94.4%
same,inhibition at 5 µM,"[3]; Severe acute respiratory syndrome coronavirus 2, Vero C1008, delta, 5 uM, Vero E6, replicates",93.9%
same,inhibition at 10 µM,"[3]; Severe acute respiratory syndrome coronavirus 2, Vero C1008, delta, 10 uM, Vero E6, replicates",100%
same,EC90,"[3]; Severe acute respiratory syndrome coronavirus 2, Vero C1008, read-out: EC90 (Confidence 95%), Vero-E6, Delta B.1.617.2",516 nM
same,% Inhibition,"[3]; 0.01 uM, Vero E6, replicates",0%
same,% Inhibition,"[3]; 0.1 uM, Vero E6, replicates",0%
same,% Inhibition,"[3]; 0.25 uM, Vero E6, replicates",0%
same,% Inhibition,"[3]; 0.5 uM, Vero E6, replicates",80.6558%
same,% Inhibition,"[3]; 1 uM, Vero E6, replicates",88.2825%
same,% Inhibition,"[3]; 2 uM, Vero E6, replicates",91.1914%
same,% Inhibition,"[3]; 5 uM, Vero E6, replicates",90.8502%
same,% Inhibition,"[3]; 10 uM, Vero E6, replicates",99.8554%
same,% Inhibition,"[3]; 50 uM, Vero E6, replicates",99.5879%
same,EC50,"[4]; Severe acute respiratory syndrome coronavirus 2, Huh-7, read-out: EC50 (Confidence 95%) in Huh7 cells",905 nM
same,EC90,"[4]; Severe acute respiratory syndrome coronavirus 2, Huh-7, read-out: EC90 (Confidence 95%) in Huh7 cells",1170 nM
same,CC50 at 48 h,[5],> 50000 nM
same,cell viability (% of control),"Vero E6 cells; 1 μM compound, 1 µM",88.7524 % of control and 100.803 % of control and 120.919 % of control
same,cell viability (% of control),"Vero E6 cells; 2 μM compound, 2 µM",88.0108 % of control and 98.9031 % of control and 128.104 % of control
same,cell viability (% of control),"Vero E6 cells; 5 μM compound, 5 µM",90.8382 % of control and 109.656 % of control and 135.798 % of control
same,cell viability (% of control),"Vero E6 cells; 10 μM compound, 10 µM",94.2217 % of control and 115.404 % of control and 120.363 % of control
same,cell viability (% of control),"Vero E6 cells; 20 μM compound, 20 µM",80.7802 % of control and 92.136 % of control and 131.024 % of control
same,cell viability (% of control),"Vero E6 cells; 50 μM compound, 50 µM",71.9737 % of control and 85.3225 % of control and 97.3272 % of control
